Experimental data reported in ChEMBL document CHEMBL1201862, “PubChem BioAssay data set” (2004).
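Results reflect a 48-hour exposure of cells in 96-well plates to compound at five concentrations. Here, GI50 denotes the concentration required for 50% inhibition of growth.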 Activity calls are given as the source filed them. No stated cut-off is given here; in the data, active = GI50 up to about 1.1 µM and inactive = higher.

Tests used:
Assay in all cases: DTP human tumour cell line panel, 48 h
ACHN = system: ACHN
CAKI-1 = system: CAKI-1
COLO 205 = system: COLO 205
DU-145 = system: DU-145
HCC 2998 = system: HCC 2998
HCT-116 = system: HCT-116
HOP-62 = system: HOP-62
MCF7 = system: MCF7
MDA-MB-435 = system: MDA-MB-435
MOLT-4 = system: MOLT-4
NCI-H226 = system: NCI-H226
NCI-H460 = system: NCI-H460
OVCAR-4 = system: OVCAR-4
OVCAR-5 = system: OVCAR-5
SF-295 = system: SF-295
SK-MEL-5 = system: SK-MEL-5
TK-10 = system: TK-10
UACC-257 = system: UACC-257
UACC-62 = system: UACC-62
Hs-578T = system: Hs-578T

| Compound | GI50 (ACHN) | GI50 (CAKI-1) | GI50 (COLO 205) | GI50 (DU-145) | GI50 (HCC 2998) | GI50 (HCT-116) | GI50 (HOP-62) | GI50 (MCF7) | GI50 (MDA-MB-435) | GI50 (MOLT-4) | GI50 (NCI-H226) | GI50 (NCI-H460) | GI50 (OVCAR-4) | GI50 (OVCAR-5) | GI50 (SF-295) | GI50 (SK-MEL-5) | GI50 (TK-10) | GI50 (UACC-257) | GI50 (UACC-62) | GI50 (Hs-578T) |
| --- | --- | --- | --- | --- | --- | --- | --- | --- | --- | --- | --- | --- | --- | --- | --- | --- | --- | --- | --- | --- |
| Cc1cc(Cc2cc(C)c(NC(=O)C(=O)C3CCC4=C(SC5C=CC=CC5N4)C3=O)c(C(C)C)c2)cc(C(C)C)c1NC(=O)C(=O)C1CCC2=C(SC3C=CC=CC3N2)C1=O (stereo unspecified) | 62.4 µM (inactive) | 53.6 µM (inactive) | 44.6 µM (inactive) | > 100 µM (inactive) | 30.5 µM (inactive) | 47 µM (inactive) | 94.4 µM (inactive) | 62.5 µM (inactive) | > 100 µM (inactive) | 32.2 µM (inactive) | 31 µM (inactive) | 53.1 µM (inactive) | 33.7 µM (inactive) | > 100 µM (inactive) | 69.7 µM (inactive) | 35.8 µM (inactive) | > 100 µM (inactive) | > 100 µM (inactive) | 53.1 µM (inactive) | – |
| O=C(CBr)N1CCC2(CC1)SSC1(CCN(C(=O)CBr)CC1)S2 | 1.54 µM (inactive) | – | 0.368 µM (active) | – | – | 0.373 µM (active) | 1.9 µM (inactive) | – | 2.12 µM (inactive) | 0.159 µM (active) | – | 1.81 µM (inactive) | 2.02 µM (inactive) | 1.39 µM (inactive) | 1.94 µM (inactive) | – | – | 2.76 µM (inactive) | 1.47 µM (inactive) | 1.72 µM (inactive) |
| COC(=O)C(C)(C)/N=C/N(C)C | > 100 µM (inactive) | > 100 µM (inactive) | > 100 µM (inactive) | – | > 100 µM (inactive) | > 100 µM (inactive) | > 100 µM (inactive) | – | – | > 100 µM (inactive) | > 100 µM (inactive) | > 100 µM (inactive) | > 100 µM (inactive) | > 100 µM (inactive) | > 100 µM (inactive) | > 100 µM (inactive) | > 100 µM (inactive) | > 100 µM (inactive) | > 100 µM (inactive) | – |
| Cc1cn(C2OC(CO[Si](C)(C)C(C)(C)C)/C(=C\C#N)C2O[Si](C)(C)C(C)(C)C)c(=O)[nH]c1=O (stereo unspecified) | 83 µM (inactive) | > 100 µM (inactive) | 12.5 µM (inactive) | 81.8 µM (inactive) | – | 22.9 µM (inactive) | 63.7 µM (inactive) | 1.89 µM (inactive) | 56.1 µM (inactive) | > 100 µM (inactive) | > 100 µM (inactive) | 8.83 µM (inactive) | 58.3 µM (inactive) | > 100 µM (inactive) | 6.67 µM (inactive) | 6.87 µM (inactive) | > 100 µM (inactive) | 63.5 µM (inactive) | 44.4 µM (inactive) | > 100 µM (inactive) |
| Cc1cccnc1N/C=C1\C(=O)NC(=O)N(C)C1=O | > 100 µM (inactive) | > 100 µM (inactive) | > 100 µM (inactive) | > 100 µM (inactive) | – | > 100 µM (inactive) | > 100 µM (inactive) | > 100 µM (inactive) | > 100 µM (inactive) | > 100 µM (inactive) | > 100 µM (inactive) | > 100 µM (inactive) | > 100 µM (inactive) | > 100 µM (inactive) | > 100 µM (inactive) | > 100 µM (inactive) | > 100 µM (inactive) | > 100 µM (inactive) | > 100 µM (inactive) | > 100 µM (inactive) |
| Cc1nn(C(=O)c2ccccc2O)c2c1C(c1ccc3ccccc3c1O)SC(=N)N2 (stereo unspecified) | 3.8 µM (inactive) | 3.52 µM (inactive) | 2.4 µM (inactive) | – | – | 1.5 µM (inactive) | 4.26 µM (inactive) | 2.44 µM (inactive) | 5.93 µM (inactive) | 2.98 µM (inactive) | 2.65 µM (inactive) | 5.53 µM (inactive) | 5.13 µM (inactive) | 7.19 µM (inactive) | > 10 µM (inactive) | 1.63 µM (inactive) | 8.75 µM (inactive) | 3.53 µM (inactive) | 1.77 µM (inactive) | 1.7 µM (inactive) |
| CC(=O)Nc1ccc2c(c1)C(=O)c1cccc(F)c1-2 | 36.6 µM (inactive) | 41.1 µM (inactive) | 53 µM (inactive) | 0.113 µM (active) | – | 24.2 µM (inactive) | 51.3 µM (inactive) | 4.33 µM (inactive) | > 100 µM (inactive) | 25.3 µM (inactive) | 35.2 µM (inactive) | 35.4 µM (inactive) | 50.4 µM (inactive) | 80.9 µM (inactive) | 54.2 µM (inactive) | 45.4 µM (inactive) | 55.6 µM (inactive) | 97.5 µM (inactive) | 38 µM (inactive) | 37.2 µM (inactive) |
| Cn1c(=O)c2c(nc(NCCNc3nc4c(c(=O)n(C)c(=O)n4C)n3C)n2C)n(C)c1=O | > 100 µM (inactive) | > 100 µM (inactive) | – | > 100 µM (inactive) | > 100 µM (inactive) | > 100 µM (inactive) | > 100 µM (inactive) | – | > 100 µM (inactive) | > 100 µM (inactive) | > 100 µM (inactive) | > 100 µM (inactive) | > 100 µM (inactive) | > 100 µM (inactive) | > 100 µM (inactive) | > 100 µM (inactive) | > 100 µM (inactive) | > 100 µM (inactive) | > 100 µM (inactive) | > 100 µM (inactive) |
